Test results reported in patent US8822409B2, “Compositions and uses thereof for the treatment of acute respiratory distress syndrome (ARDS) and clinical disorders associated with therewith” (Phylogica Limited, priority 2007, dated 2014).
Entries after “also recorded” stand apart in the source; their conditions may differ. Where no end group is shown, it is not given here. [ ]: non-standard residue; d: D form.

Legend:
[1] = test system: C57/BL6 mice given intranasal LPS (animal model of ARDS and sepsis); assay: Neutrophil infiltration in BAL after intranasal peptide, LPS-induced mouse model of ARDS and sepsis (FIG. 1); assay type: in vivo; settings: repeated dose co-administered with LPS (10 μg/mouse), BAL 6 hours later, n=5
Procedure: FIG. 1 is a graphical representation showing the percentage of neutrophils (y-axis) in bronchoalveolar lavage (BAL) in 8-week to 12-week old C57/BL6 mice receiving various treatments indicated by numbers on the x-axis as follows:
Columns 1-4 (open bars): Animals (n=5 per group) received either no LPS (column 1) or a dose of LPS intranasally (10 μg/mouse) and BAL was performed 1 hour (column 2), 4 hours (column 3) or 6 hours (column 4) later. No peptide was administered to these animals.
Columns 5-7 (filled bars): Animals (n=5 per group) received an intranasal dose of 10 mg/kg body weight of retroinverted peptide analog D-PYC36-TAT (SEQ ID NO: 106; column 5) or D-PYC35-TAT (SEQ ID NO: 104; column 6), or 5 mg/kg body weight of retroinverted peptide analog D-PYC38-TAT (SEQ ID NO: 108; column 7), by a repeated dose of the same peptide analog for each group co-administered intranasally with LPS (10 μg/mouse) and BAL was performed 6 hours later.
Column 8 (hatched bars): Animals (n=5) received an intranasal dose of 10 mg/kg body weight of a scrambled version of SEQ ID NO: 106 designated D-PYC36scrambled-TAT followed 1 hour later by a repeated dose of the same peptide analog co-administered intranasally with LPS (10 μg/mouse) and BAL was performed 6 hours later.
BAL was performed on the animals using 1 ml GKN/0.2% BSA. Cell counts were obtained to determine total cell numbers and differential counts were obtained on cytocentrifuge slide preparations to elucidate the percentage neutrophils in BAL.
8-12 week old C57/B16 mice were purchased from the Animal Resource Center, Murdoch University, Western Australia and used for all experiments. All experiments were approved by the necessary institutional animal ethics committees and were performed in accordance with the National Health and Medical Research Council (NHMRC) Australian Code of Practice for the Care and Use of Animals for Scientific Purposes. […]

[2] = test system: female C57/BL6 mice given intranasal LPS (animal model of ARDS and sepsis); assay: Neutrophil infiltration in BAL after intravenous peptide injection, LPS-induced mouse model of ARDS and sepsis (FIG. 2); assay type: in vivo; settings: intravenous 10 mg/kg 20 min before intranasal LPS (40 μg/mouse), repeat injections 2 and 4 hours post-LPS, BAL 6 hours after LPS
Procedure: FIG. 2 is a graphical representation showing the percentage of neutrophils (y-axis) in bronchoalveolar lavage (BAL) in 8-week to 10-week old female C57/BL6 mice receiving various treatments indicated by numbers on the x-axis as follows:
Column 1 (naïve): Animals received no LPS and BAL was performed 6 hours later. No peptide was administered to these animals.
Column 2 (nil): Animals received an intranasal dose of E. coli LP (40 μg/mouse) and BAL was performed 6 hours later.
Column 3 (D36-TAT x1): Animals received a single intravenous injection of 10 mg/kg body weight of retroinverted peptide analog D-PYC36-TAT (SEQ ID NO: 106) followed 20 min later by an intranasal dose of LPS (40 μg/mouse). BAL was performed 6 hours after LPS administration.
Column 4 (D36-TATscr x1): Animals received a single intravenous injection of 10 mg/kg body weight of a peptide having a scrambled sequence relative to the retroinverted peptide analog D-PYC36-TAT (SEQ ID NO: 106) followed 20 min later by an intranasal dose of LPS (40 μg/mouse). BAL was performed 6 hours after LPS administration. […]

[3] = intranasal 10 mg/kg body weight 1 hour before LPS

## SEQ ID NO: 108: retroinverted peptide analog of SEQ ID NO: 61 fused to the TAT 10-mer with a linking glycine; AP-1 signaling inhibitor ([dR][dH][dA][dP][dL][dA][dR]G[dS][dW][dR]G[dQ][dP][dQ][dQ]G[dP][dQ][dR][dR]G[dQ][dL]GG[dR][dR][dR][dQ][dR][dR][dK][dK][dR]G)
[1]; intranasal 5 mg/kg body weight 1 hour before LPS
  percentage of neutrophils in bronchoalveolar lavage (BAL): significantly reduced; also recorded: significantly-reduced

## SEQ ID NO: 104: retroinverted peptide analog of SEQ ID NO: 57 fused to the TAT 10-mer with a linking glycine; AP-1 signaling inhibitor ([dR][dE][dR][dK][dS][dS][dS][dE][dI]GG[dS][dR][dI][dS][dQ][dY][dA]G[dR][dR][dR][dQ][dR][dR][dK][dK][dR]G; also: retro-inverso)
[1]; [3]
  percentage of neutrophils in bronchoalveolar lavage (BAL): significantly reduced; also recorded: significantly-reduced

## SEQ ID NO: 106: retroinverted peptide analog of SEQ ID NO: 59 fused to the TAT 10-mer with a linking glycine; AP-1 signaling inhibitor ([dP][dK][dI][dS][dQ][dY]G[dQ][dR][dR][dR]G[dQ][dL]GG[dR][dR][dR][dQ][dR][dR][dK][dK][dR]G)
[1]; [3]
  percentage of neutrophils in bronchoalveolar lavage (BAL): significantly reduced; also recorded: significantly-reduced
[2]
  percentage of neutrophils in bronchoalveolar lavage (BAL): significantly reduced; also recorded: significantly-reduced
